ChEMBL document CHEMBL3632507, “Discovery of novel VEGFR-2 inhibitors. Part 5: Exploration of diverse hinge-binding fragments via core-refining approach” (Eur J Med Chem, 2015)

Assays:
[1] = tested on: A549; test: Antiproliferative activity against human A549 cells assessed as cell growth inhibition after 48 hrs by MTT assay; conditions: A549, 48 h
[2] = Antiproliferative activity against human SMMC7721 cells assessed as cell growth inhibition after 48 hrs by MTT assay; conditions: SMMC-7721, 48 h
[3] = molecular target: Vascular endothelial growth factor receptor 2 (Homo sapiens, UniProt P35968); test: Inhibition of VEGFR-2 (unknown origin) after 1 hr by ADP-Glo assay
Sequence of Vascular endothelial growth factor receptor 2 (P35968 whole entry): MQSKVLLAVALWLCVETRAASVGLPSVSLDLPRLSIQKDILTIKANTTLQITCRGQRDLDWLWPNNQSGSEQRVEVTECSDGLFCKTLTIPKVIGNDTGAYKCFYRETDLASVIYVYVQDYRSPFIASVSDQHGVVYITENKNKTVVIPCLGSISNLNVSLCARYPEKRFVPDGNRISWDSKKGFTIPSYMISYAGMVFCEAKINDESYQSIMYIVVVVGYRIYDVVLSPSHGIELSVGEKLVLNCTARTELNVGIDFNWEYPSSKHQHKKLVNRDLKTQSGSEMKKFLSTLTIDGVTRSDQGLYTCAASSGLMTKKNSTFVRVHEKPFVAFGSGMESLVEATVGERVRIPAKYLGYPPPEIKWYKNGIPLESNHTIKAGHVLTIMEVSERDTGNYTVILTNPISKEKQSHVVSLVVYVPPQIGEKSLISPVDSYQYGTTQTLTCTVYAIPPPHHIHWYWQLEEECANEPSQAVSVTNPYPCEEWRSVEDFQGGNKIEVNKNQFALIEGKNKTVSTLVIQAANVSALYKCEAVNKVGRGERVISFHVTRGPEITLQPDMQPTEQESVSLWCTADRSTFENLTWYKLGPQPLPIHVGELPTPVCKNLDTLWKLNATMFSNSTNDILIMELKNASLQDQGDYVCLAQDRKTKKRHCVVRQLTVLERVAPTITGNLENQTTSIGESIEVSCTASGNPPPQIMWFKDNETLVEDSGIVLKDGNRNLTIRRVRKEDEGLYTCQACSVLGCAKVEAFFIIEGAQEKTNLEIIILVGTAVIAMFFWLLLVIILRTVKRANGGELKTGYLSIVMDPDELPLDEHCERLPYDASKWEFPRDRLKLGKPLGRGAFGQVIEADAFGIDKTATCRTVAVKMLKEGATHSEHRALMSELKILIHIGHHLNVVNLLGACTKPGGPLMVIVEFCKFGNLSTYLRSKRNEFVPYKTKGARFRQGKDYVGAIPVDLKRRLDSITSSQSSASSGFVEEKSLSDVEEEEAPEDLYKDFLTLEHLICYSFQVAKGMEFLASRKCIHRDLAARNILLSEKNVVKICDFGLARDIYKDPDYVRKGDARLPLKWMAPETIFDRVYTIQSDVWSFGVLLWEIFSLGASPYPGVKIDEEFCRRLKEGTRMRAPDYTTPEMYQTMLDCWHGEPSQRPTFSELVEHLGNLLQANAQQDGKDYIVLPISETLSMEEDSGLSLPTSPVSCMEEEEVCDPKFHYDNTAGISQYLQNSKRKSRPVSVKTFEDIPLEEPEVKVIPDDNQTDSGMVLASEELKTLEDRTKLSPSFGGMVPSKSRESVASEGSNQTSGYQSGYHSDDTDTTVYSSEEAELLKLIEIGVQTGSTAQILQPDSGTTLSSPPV

Row | IC50 [1] | IC50 [3] | SMILES | IC50 [2]
1 | 2490 nM |  | COc1ccc(C(=O)OCCN(C)C)cc1NC(=O)Nc1cc(-c2cccnc2)cc(C(F)(F)F)c1 | 860 nM
2 | 1660 nM | > 500 µM | COc1ccc(C(=O)OCCN(C)C)cc1NC(=O)Nc1cc(-c2cncnc2)cc(C(F)(F)F)c1 | 1390 nM
3 | 1010 nM |  | COc1ccc(C(=O)OCCN(C)C)cc1NC(=O)Nc1cc(-c2cccnc2)ccc1OC(F)(F)F | 1380 nM
4 | 950 nM |  | COc1ccc(C(=O)OCCN(C)C)cc1NC(=O)Nc1cc(-c2ccc3[nH]ccc3c2)ccc1OC(F)(F)F | 1760 nM
5 | 910 nM |  | COc1ccc(-c2ccc(OC(F)(F)F)c(NC(=O)Nc3cc(C(=O)OCCN(C)C)ccc3OC)c2)cn1 | 2010 nM
6 | 14700 nM |  | COc1ccc(C(=O)OCCN(C)C)cc1NC(=O)Nc1cc(-c2cncnc2)ccc1OC(F)(F)F | 6150 nM
7 | 990 nM |  | CCN(CC)CCOC(=O)c1ccc(OC)c(NC(=O)Nc2cc(-c3ccc4[nH]ccc4c3)ccc2OC(F)(F)F)c1 | 570 nM
8 | 1910 nM |  | COc1ccc(C(=O)OCCN(C(C)C)C(C)C)cc1NC(=O)Nc1cc(-c2cccnc2)cc(C(F)(F)F)c1 | 730 nM
9 | 1570 nM | > 500 µM | COc1ccc(C(=O)OCCN(C(C)C)C(C)C)cc1NC(=O)Nc1cc(-c2ccc3[nH]ccc3c2)cc(C(F)(F)F)c1 | 410 nM
10 | 2060 nM | > 500 µM | COc1ccc(C(=O)OCCN(C(C)C)C(C)C)cc1NC(=O)Nc1cc(-c2ccc3[nH]ccc3c2)ccc1OC(F)(F)F | 360 nM
11 | > 500000 nM | > 500 µM | COc1ccc(C(=O)OCCN2CCOCC2)cc1NC(=O)Nc1cc(-c2cccnc2)cc(C(F)(F)F)c1 | 11100 nM
12 | 1240 nM | > 500 µM | COc1ccc(C(=O)OCCN2CCOCC2)cc1NC(=O)Nc1cc(-c2ccc3[nH]ccc3c2)cc(C(F)(F)F)c1 | 1770 nM
13 | 1280 nM |  | COc1ccc(C(=O)OCCN2CCOCC2)cc1NC(=O)Nc1cc(-c2cncnc2)ccc1OC(F)(F)F | 10800 nM
14 | > 500000 nM |  | COc1ccc(C(=O)OCCN2CCOCC2)cc1NC(=O)Nc1cc(-c2cn[nH]c2)ccc1OC(F)(F)F | 2550 nM

Continued, compound first:

Row | SMILES | IC50 [1] | IC50 [3] | IC50 [2]
15 | CCN(CC)CCOC(=O)c1ccc(OC)c(NC(=O)Nc2cc(-c3ccc(OC)nc3)ccc2OC(F)(F)F)c1 | 1730 nM |  | 640 nM
16 | CCN(CC)CCOC(=O)c1ccc(OC)c(NC(=O)Nc2cc(-c3cncnc3)ccc2OC(F)(F)F)c1 | > 500000 nM | > 500 µM | 3430 nM
17 | COc1ccc(C(=O)OCCN(C(C)C)C(C)C)cc1NC(=O)Nc1cc(-c2cncnc2)ccc1OC(F)(F)F | 3970 nM | > 500 µM | 920 nM
18 | COc1ccc(C(=O)OCCN(C(C)C)C(C)C)cc1NC(=O)Nc1cc(-c2cn[nH]c2)ccc1OC(F)(F)F | 1520 nM | > 500 µM | 1230 nM
19 | COc1ccc(C(=O)OCCN(C(C)C)C(C)C)cc1NC(=O)Nc1cc(-c2cnn(C)c2)ccc1OC(F)(F)F | > 500000 nM | > 500 µM | > 500000 nM
20 | Nc1n[nH]c2cccc(-c3cccc(NC(=O)Nc4ccccc4F)c3)c12 | 1170 nM |  | 2360 nM
21 | Nc1n[nH]c2cccc(-c3cccc(NC(=O)Nc4cccc(F)c4)c3)c12 | 1360 nM |  | 1240 nM
22 | Nc1n[nH]c2cccc(-c3cccc(NC(=O)Nc4ccc(F)cc4)c3)c12 | > 500000 nM |  | > 500000 nM
23 | Nc1n[nH]c2cccc(-c3cccc(NC(=O)Nc4ccccc4Cl)c3)c12 | 15800 nM |  | > 500000 nM
24 | Nc1n[nH]c2cccc(-c3cccc(NC(=O)Nc4cccc(Cl)c4)c3)c12 | 1720 nM |  | 1830 nM
25 | Cc1ccc(NC(=O)Nc2cccc(-c3cccc4[nH]nc(N)c34)c2)cc1 | 1660 nM |  | 4450 nM
26 | CC(C)c1cccc(NC(=O)Nc2cccc(-c3cccc4[nH]nc(N)c34)c2)c1 | 1420 nM |  | 280 nM
27 | Nc1n[nH]c2cccc(-c3cccc(NC(=O)Nc4cccc(C(F)(F)F)c4)c3)c12 | 1950 nM |  | 1410 nM
28 | COc1cccc(NC(=O)Nc2cccc(-c3cccc4[nH]nc(N)c34)c2)c1 | 2490 nM |  | 2860 nM
29 | Cc1cccc(C)c1NC(=O)Nc1cccc(-c2cccc3[nH]nc(N)c23)c1 | 229000 nM | > 0.5 µM | > 500000 nM
30 | Nc1n[nH]c2cccc(-c3cccc(NC(=O)Nc4ccc(F)c(F)c4)c3)c12 | 3040 nM | > 0.5 µM | 5880 nM
31 | Nc1n[nH]c2cccc(-c3cccc(NC(=O)Nc4ccc(Cl)cc4Cl)c3)c12 | > 500000 nM |  | 1900 nM
32 | Nc1n[nH]c2cccc(-c3cccc(NC(=O)Nc4cc(C(F)(F)F)cc(C(F)(F)F)c4)c3)c12 | 1510 nM |  | 3540 nM
33 | Cc1ccc(NC(=O)Nc2cccc(-c3cccc4[nH]nc(N)c34)c2)cc1Cl | 1750 nM |  | 510 nM
34 | Nc1n[nH]c2cccc(-c3cccc(NC(=O)Nc4ccc(Cl)c(C(F)(F)F)c4)c3)c12 | 3410 nM |  | 1150 nM
35 | Nc1n[nH]c2cccc(-c3cccc(NC(=O)Nc4nccs4)c3)c12 | > 500000 nM | > 0.5 µM | 550 nM
36 | Nc1n[nH]c2cccc(-c3ccc(NC(=O)Nc4ccc5c(c4)OCO5)cc3)c12 | 5230 nM |  | 530 nM
37 | Cc1ccnc(NC(=O)Nc2ccc(-c3cccc4[nH]nc(N)c34)cc2)c1 | 1160 nM | > 0.5 µM | 430 nM
38 | CN(C)CCOc1ccc(NC(=O)Nc2ccc(-c3cccc4[nH]nc(N)c34)cc2)cc1F | > 500000 nM |  | 600 nM
39 | CNC(=O)c1cc(Oc2ccc(NC(=O)Nc3ccc(Cl)c(C(F)(F)F)c3)cc2)ccn1 [SORAFENIB] | 1450 nM |  | 650 nM
